Tests used:
Triticum aestivum [1] = assay: Effect on photosynthetic activity in Triticum aestivum (wheat) shoots assessed as leaf net photosynthesis rate measured by CO2 production compound administered at rate of 14 mf/flat measured 48 hr post treatment (reference value: 1.92 umol/m2/s); assay type: functional
Lolium multiflorum [2] = assay: Effect on antioxidant enzyme system in Lolium multiflorum (Italian ryegrass) shoots assessed as glutathione S-transferase activity per mg protein compound administered at rate of 14 mf/flat measured 48 hr post treatment (reference value: 0.37 nmol/s per mg protein); assay type: functional
Triticum aestivum [3] = assay: Effect on MDA content in Triticum aestivum (wheat) shoots compound administered at rate of 14 mf/flat measured 24 hr post treatment (reference value: 0.054 uM/L); assay type: functional
Lolium multiflorum [4] = assay: Increase in antioxidant enzyme system in Lolium multiflorum (Italian ryegrass) shoots assessed as increase in ascorbate peroxidase activity compound administered at rate of 14 mf/flat measured 24 hr post treatment; assay type: functional
Triticum aestivum [5] = assay: Effect on antioxidant enzyme system in Triticum aestivum (wheat) shoots assessed as ascorbate peroxidase activity per mg protein compound administered at rate of 14 mf/flat measured 72 hr post treatment (reference value: 17.2 nmol/s per mg protein); assay type: functional
Triticum aestivum [6] = assay: Effect on photosynthetic activity in Triticum aestivum (wheat) shoots assessed as leaf net photosynthesis rate measured by CO2 production compound administered at rate of 14 mf/flat measured 72 hr post treatment (reference value: 1.46 umol/m2/s); assay type: functional
Lolium multiflorum [7] = assay: Increase in glutathione S-transferase activity in Lolium multiflorum (Italian ryegrass) compound administered at rate of 14 mf/flat measured 24 hr post treatment; assay type: functional
Lolium multiflorum [8] = assay: Increase in antioxidant enzyme system in Lolium multiflorum (Italian ryegrass) shoots shoots assessed as increase in glutathione reductase activity compound administered at rate of 14 mf/flat measured 24 hr post treatment; assay type: functional
Lolium multiflorum [9] = assay: Effect on MDA content in Lolium multiflorum (Italian ryegrass) shoots compound administered at rate of 14 mf/flat measured 48 hr post treatment (reference value: 0.65 uM/L); assay type: functional
Triticum aestivum [10] = assay: Effect on MDA content in Triticum aestivum (wheat) shoots compound administered at rate of 14 mf/flat measured 48 hr post treatment (reference value: 0.053 uM/L); assay type: functional
Triticum aestivum [11] = assay: Effect on antioxidant enzyme system in Triticum aestivum (wheat) shoots assessed as glutathione reductase activity per mg protein compound administered at rate of 14 mf/flat measured 48 hr post treatment (reference value: 1.1 nmol/s per mg protein); assay type: functional
Lolium multiflorum [12] = assay: Effect on antioxidant enzyme system in Lolium multiflorum (Italian ryegrass) shoots assessed as ascorbate peroxidase activity per mg protein compound administered at rate of 14 mf/flat measured 48 hr post treatment (reference value: 11.3 nmol/s per mg protein); assay type: functional
Lolium multiflorum [13] = assay: Increase in MDA content in Lolium multiflorum (Italian ryegrass) shoots compound administered at rate of 14 mf/flat measured 48 hr post treatment; assay type: functional
Lolium multiflorum [14] = assay: Effect on MDA content in Lolium multiflorum (Italian ryegrass) shoots compound administered at rate of 14 mf/flat measured 72 hr post treatment (reference value: 0.67 uM/L); assay type: functional
Lolium multiflorum [15] = assay: Effect on antioxidant enzyme system in Lolium multiflorum (Italian ryegrass) shoots assessed as glutathione reductase activity per mg protein compound administered at rate of 14 mf/flat measured 72 hr post treatment (reference value: 1.2 nmol/s per mg protein); assay type: functional
Triticum aestivum [16] = assay: Increase in antioxidant enzyme system in Triticum aestivum (wheat) shoots assessed as increase in dehydroascorbate reductase activity compound administered at rate of 14 mf/flat measured 24 hr post treatment; assay type: functional
Triticum aestivum [17] = assay: Increase in antioxidant enzyme system in Triticum aestivum (wheat) shoots assessed as increase in dehydroascorbate reductase activity compound administered at rate of 14 mf/flat measured 48 hr post treatment; assay type: functional
Triticum aestivum [18] = assay: Reduction in glutathione S-transferase activity in Triticum aestivum (wheat) shoots compound administered at rate of 14 mf/flat measured 24 hr post treatment; assay type: functional; set-up: scale not given: the % may be the effect or the level left
Triticum aestivum [19] = assay: Drug level in Triticum aestivum (wheat) compound administered at rate of 14 mf/flat measured 24 hr post treatment by HPLC; assay type: ADME, organism-based; settings: in vivo
Triticum aestivum [20] = assay: Effect on antioxidant enzyme system in Triticum aestivum (wheat) shoots assessed as glutathione S-transferase activity per mg protein compound administered at rate of 14 mf/flat measured 48 hr post treatment (reference value: 2.3 nmol/s per mg protein); assay type: functional
Triticum aestivum [21] = assay: Effect on antioxidant enzyme system in Triticum aestivum (wheat) shoots assessed as glutathione reductase activity per mg protein compound administered at rate of 14 mf/flat measured 24 hr post treatment (reference value: 1.1 nmol/s per mg protein); assay type: functional
Triticum aestivum [22] = assay: Effect on antioxidant enzyme system in Triticum aestivum (wheat) shoots assessed as catalase activity per mg protein compound administered at rate of 14 mf/flat measured 48 hr post treatment (reference value: 0.12 nmol/s per mg protein); assay type: functional
Triticum aestivum [23] = assay: Effect on antioxidant enzyme system in Triticum aestivum (wheat) shoots assessed as dehydroascorbate reductase activity per mg protein compound administered at rate of 14 mf/flat measured 24 hr post treatment (reference value: 4.6 nmol/s per mg protein); assay type: functional
Triticum aestivum [24] = assay: Effect on photosynthetic activity in Triticum aestivum (wheat) shoots assessed as leaf net photosynthesis rate measured by CO2 production compound administered at rate of 14 mf/flat measured 24 hr post treatment (reference value: 1.35 umol/m2/s); assay type: functional
Shoot [25] = assay: Drug level in Triticum aestivum (wheat) shoots compound administered at rate of 14 mf/flat measured 72 hr post treatment by HPLC; assay type: ADME
Lolium multiflorum [26] = assay: Effect on antioxidant enzyme system in Lolium multiflorum (Italian ryegrass) shoots assessed as ascorbate peroxidase activity per mg protein compound administered at rate of 14 mf/flat measured 24 hr post treatment (reference value: 12.5 nmol/s per mg protein); assay type: functional
Triticum aestivum [27] = assay: Increase in antioxidant enzyme system in Triticum aestivum (wheat) shoots assessed as increase in ascorbate peroxidase activity compound administered at rate of 14 mf/flat measured 24 hr post treatment; assay type: functional
Lolium multiflorum [28] = assay: Effect on photosynthetic activity in Lolium multiflorum (Italian ryegrass) shoots assessed as dark respiration rate measured by CO2 production compound administered at rate of 14 mf/flat measured 48 hr post treatment (reference value: -1.68 umol/m2/s); assay type: functional
Shoot [29] = assay: Drug level in Triticum aestivum (wheat) shoots compound administered at rate of 14 mf/flat measured 48 hr post treatment by HPLC; assay type: ADME
Lolium multiflorum [30] = assay: Effect on antioxidant enzyme system in Lolium multiflorum (Italian ryegrass) shoots assessed as catalase activity per mg protein compound administered at rate of 14 mf/flat measured 72 hr post treatment (reference value: 0.12 nmol/s per mg protein); assay type: functional
Triticum aestivum [31] = assay: Increase in antioxidant enzyme system in Triticum aestivum (wheat) shoots assessed as increase in ascorbate peroxidase activity compound administered at rate of 14 mf/flat measured 48 hr post treatment; assay type: functional
Triticum aestivum [32] = assay: Effect on antioxidant enzyme system in Triticum aestivum (wheat) shoots assessed as dehydroascorbate reductase activity per mg protein compound administered at rate of 14 mf/flat measured 72 hr post treatment (reference value: 4.7 nmol/s per mg protein); assay type: functional

SMILES | Activity (Triticum aestivum [1]) [micromol/m2/s] | Activity (Lolium multiflorum [2]) [nmol/s/mg protein] | Activity (Triticum aestivum [3]) [µM] | Activity (Lolium multiflorum [4]) [%] | Activity (Triticum aestivum [5]) [nmol/s/mg protein] | Activity (Triticum aestivum [6]) [micromol/m2/s] | Activity (Lolium multiflorum [7]) [%] | Activity (Lolium multiflorum [8]) [%] | Activity (Lolium multiflorum [9]) [µM] | Activity (Triticum aestivum [10]) [µM] | Activity (Triticum aestivum [11]) [nmol/s/mg protein] | Activity (Lolium multiflorum [12]) [nmol/s/mg protein] | Activity (Lolium multiflorum [13]) [%] | Activity (Lolium multiflorum [14]) [µM] | Activity (Lolium multiflorum [15]) [nmol/s/mg protein] | Activity (Triticum aestivum [16]) [%] | Activity (Triticum aestivum [17]) [%] | Activity (Triticum aestivum [18]) [%] | Drug uptake (Triticum aestivum [19]) [ppm] | Activity (Triticum aestivum [20]) [nmol/s/mg protein] | also measured
O=[N+]([O-])c1ccc(Oc2ccc(C(F)(F)F)cc2[N+](=O)[O-])cc1 [FLUORODIFEN] | 2.13 | 0.5 | 0.05 | 11 | 17.2 | 1.25 | 97 | 72 | 0.74 | 0.05 | 1.2 | 15.3 | 14 | 0.74 | 1.1 | 9 | 11 | 15 | 0.44 | 2.2 | Activity (Triticum aestivum [21]): 1.5 nmol/s/mg protein; Activity (Triticum aestivum [22]): 0.12 nmol/s; Activity (Triticum aestivum [23]): 5 nmol/s/mg protein; Activity (Triticum aestivum [24]): 1.15 micromol/m2/s; Drug uptake (Shoot [25]): 0.2 ppm; Activity (Lolium multiflorum [26]): 13.9 nmol/s/mg protein; Activity (Triticum aestivum [27]): 46%; Activity (Lolium multiflorum [28]): -1.36 micromol/m2/s; Drug uptake (Shoot [29]): 0.27 ppm; Activity (Lolium multiflorum [30]): 0.13 nmol/s/mg protein; Activity (Triticum aestivum [31]): 10%; Activity (Triticum aestivum [32]): 6.8 nmol/s/mg protein
CCNc1nc(Cl)nc(NC(C)C)n1 [ATRAZINE] | 0.22 | 0.46 | 0.55 | 20 | 18 | 0 | 35 | 27 | 0.85 | 0.53 | 1.1 | 14.2 | 31 | 0.74 | 1.2 | 20 | 15 | 37 | 2.26 | 1.7 | Activity (Triticum aestivum [21]): 1.5 nmol/s/mg protein; Activity (Triticum aestivum [22]): 0.11 nmol/s; Activity (Triticum aestivum [23]): 5.5 nmol/s/mg protein; Activity (Triticum aestivum [24]): -0.52 micromol/m2/s; Drug uptake (Shoot [25]): 1.94 ppm; Activity (Lolium multiflorum [26]): 15 nmol/s/mg protein; Activity (Triticum aestivum [27]): 40%; Activity (Lolium multiflorum [28]): -1.56 micromol/m2/s; Drug uptake (Shoot [29]): 5.67 ppm; Activity (Lolium multiflorum [30]): 0.13 nmol/s/mg protein; Activity (Triticum aestivum [31]): 28%; Activity (Triticum aestivum [32]): 5.7 nmol/s/mg protein
